Consider 16 compounds from PubChem BioAssay (NCI).

Each structure is given as a SMILES string.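 Assay format: 96-well plates, 48-hour exposure. GI50 is the concentration that inhibits growth by half. TGI: total growth inhibition.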

Common to all, as to test: growth of human tumour cells (NCI), 48 h
The subject of assay [1] is HCC-2998 colon.
Assay [2] deals with OVCAR-8 ovarian.
The subject of assay [3] is IGROV1 ovarian.
For assay [4], the system named is HOP-92 NSCLC.
In assay [5] the test system is EKVX NSCLC.
Assay [6] relates to SF-268 CNS.
Assay [7] relates to HL-60(TB) leukemia.
Assay [8] deals with 786-0 renal.
For assay [9], the system named is SR leukemia.
In assay [10] the test system is MDA-MB-231 breast.

Consider `C#Cc1cccc(NC(=O)c2cccc(NC(=O)CCl)c2)c1`, for which the GI50 was 29.8 µM in [1]; 17.5 µM in assay [2]; 5.79 µM in assay [3]; 14.7 µM in assay [4]; 27.2 µM in [5]; 23 µM in assay [6]. Moreover, the GI50 in [7] was 13.2 µM; in assay [8] it was 14.2 µM; in [9], 4.79 µM; in assay [10] it was 16 µM. Moreover, the TGI is more than 82.5 µM in assay [1]; more than 82.5 µM in [2]; 19.1 µM in [3]; 34.6 µM in assay [4]; more than 82.5 µM in assay [5]; more than 82.5 µM in assay [6]. In addition, the TGI in [7] is 39.7 µM; in [8], 28.1 µM; in [9], 43.1 µM; in assay [10] it was 37.2 µM.
On to `Cc1cc(=O)oc2cc3oc(N(C)c4ccccc4)nc(=O)c3cc12`, for which the TGI in [1], in [2], in assay [3], in [4], in assay [5] and in [6] was more than 100 µM in each case. Moreover, the TGI in [7], in assay [8], in assay [9] and in assay [10] was more than 100 µM each time.
Turning to `O=c1oc2ccc(Cl)cc2c(=O)n1-c1ccc(F)cc1F`, the GI50 in [1] is 2.89 µM; in assay [2], 2.66 µM; in [3], 1.74 µM; in assay [5] it was 1.98 µM; in assay [6], 2.21 µM; in [7], 1.88 µM. Besides, the GI50 in assay [8] is 3.07 µM; in assay [9] it was 1.04 µM; in assay [10] it was 2.06 µM. Also, the TGI was 8.72 µM in assay [1]; more than 100 µM in assay [2]; more than 100 µM in assay [3]; 0.176 µM in [4]; 8.04 µM in assay [5]; 15.8 µM in assay [6]. For the same compound, the TGI in assay [7] was 4.93 µM; in assay [8] it was 10.5 µM; in assay [9] it was 9.75 µM; in [10] it was 8.2 µM.
Turning to `COc1c(C)c(OC)c(C(=O)CC(C)C)c(OC)c1C`, the TGI in assay [1], in assay [2], in assay [3], in [4], in [5] and in assay [6] was more than 100 µM each time. In addition, the TGI in assay [7] was 50.5 µM; in assay [8], more than 100 µM; in assay [9], more than 100 µM; in [10], more than 100 µM.
Take `O=C(Nc1n[nH]c2nc(-c3ccc(O)cc3)c(Br)cc12)C1CC1`: the GI50 in assay [1] is 4.76 µM; in assay [2], 4.71 µM; in assay [3], 5.75 µM; in assay [4], 8.66 µM; in [5], 6.34 µM; in assay [6], 4.74 µM. In addition, the GI50 in assay [7] was 2.79 µM; in [8], 4.55 µM; in [9] it was 1.53 µM; in assay [10], 5.52 µM. Further, the TGI in assay [1] is more than 20.3 µM; in assay [2], more than 22.1 µM; in [3], more than 20.6 µM; in [4], 18.3 µM; in [5] it was 19 µM; in [6], 16.5 µM. Further, the TGI is 15.4 µM in assay [7], 14.3 µM in [8], more than 15.4 µM in [9] and 16.8 µM in [10].
Turning to `CC(C)=Cc1cccc2[nH]c(O)c(N=Nc3ccc(S(N)(=O)=O)cc3)c12`, the GI50 in assay [1] was more than 25 µM; in assay [2] it was 5 µM; in assay [3], more than 25 µM; in assay [4], 6.57 µM; in assay [5] it was more than 25 µM; in assay [6], 12.4 µM. Further, the GI50 in assay [7] was 3.37 µM; in assay [8] it was 9.07 µM; in assay [9] it was 0.593 µM; in assay [10], 7.17 µM. Also, the TGI in assay [1], in [2], in [3], in assay [4], in assay [5] and in [6] was more than 25 µM throughout. The TGI in assay [7], in assay [8], in assay [9] and in [10] was more than 25 µM each time.
Consider `COc1ccccc1NC(=O)CC(=O)n1nc(C)c(N=Nc2ccccc2Cl)c1C`, for which the TGI in assay [1], in assay [2], in [3], in assay [4], in assay [5] and in assay [6] was more than 100 µM throughout. In addition, the TGI in [7] is more than 100 µM; in assay [8], more than 100 µM; in assay [9], 97.9 µM; in assay [10], more than 100 µM.
`CCCCc1n(Cc2ccc3ccccc3n2)cc[n+]1Cc1ccc2ccccc2n1`: the GI50 was 0.813 µM in assay [1]; 2.73 µM in assay [2]; 1.17 µM in assay [3]; 0.491 µM in [4]; 2.58 µM in assay [5]; 2.18 µM in assay [6]. Also, the GI50 in assay [7] is 0.295 µM; in assay [8], 4.65 µM; in [9], 0.537 µM; in [10] it was 1.77 µM. For the same compound, the TGI in assay [1] is 10.4 µM; in [2], 12 µM; in [3], 10.9 µM; in assay [4] it was 4.34 µM; in [5] it was 20.2 µM; in assay [6] it was 14.3 µM. Also, the TGI is 1.11 µM in assay [7], 17.3 µM in assay [8], 4.87 µM in [9] and 9.35 µM in assay [10].
On to `COc1cc(NS(C)(=O)=O)ccc1Cc1c2ccccc2nc2ccccc12`, for which the GI50 in assay [1] is 0.433 µM; in assay [2] it was 0.146 µM; in [3] it was 0.414 µM; in [4], 0.129 µM; in [5] it was 0.993 µM; in [6], 0.179 µM. The figures for the GI50 in [7], in assay [8] and in assay [10] were 0.0258 µM, 0.139 µM and 1.28 µM, respectively. For the same compound, the TGI in [1] stood at 2.35 µM; in assay [2], 1.37 µM; in assay [3] it was 2.88 µM; in [4], 1.14 µM; in [5], 4.24 µM; in assay [6], 6.03 µM. The TGI is 0.141 µM in [7], 0.64 µM in [8], 0.139 µM in [9] and 2.78 µM in assay [10].
Take `COC(=O)C1=C(C(=O)ON)[C@@H]2C=C[C@@]1([C@@H](Cc1ccccc1)Nc1ccccc1)O2`: the GI50 in assay [1] was 17.2 µM; in assay [2], 14.4 µM; in assay [3] it was 2.03 µM; in assay [4], 1.5 µM; in assay [5], 1.83 µM; in assay [6] it was 14 µM. Also, the GI50 in [7] was 1.45 µM; in [8], 1.85 µM; in assay [9], 2.02 µM; in assay [10] it was 1.79 µM. The TGI was 32.5 µM in assay [1]; 27.9 µM in assay [2]; 4.01 µM in assay [3]; 2.88 µM in assay [4]; 4.16 µM in assay [5]; 28.5 µM in [6]. The TGI was found to be 6.18 µM in assay [7], 3.57 µM in assay [8], 10.4 µM in assay [9] and 3.78 µM in [10].
As for `CCN1C(=O)N(CC)C2C1NN=c1s/c(=C\c3ccc(C(F)(F)F)cc3)c(=O)n12` (stereo not drawn), the GI50 was 0.354 µM in assay [1]; 0.467 µM in [2]; 0.576 µM in assay [3]; 2.2 µM in [4]; 0.521 µM in assay [5]; 1.03 µM in assay [6]. In addition, the GI50 is 0.245 µM in assay [7], 1.23 µM in assay [8], 0.204 µM in assay [9] and 0.495 µM in assay [10]. Moreover, the TGI in assay [1] is 11.6 µM; in assay [2] it was 28.2 µM; in assay [3], 33.1 µM; in assay [4] it was 35.9 µM; in assay [5], more than 56.2 µM; in assay [6], more than 41 µM. In addition, the TGI in assay [7] is 0.609 µM; in assay [8], more than 39 µM; in assay [9] it was 5.77 µM; in assay [10] it was 8.84 µM.
For `FC(F)(F)c1cc(NC(=S)N2c3ccccc3-n3cccc3C2c2cccnc2)cc(C(F)(F)F)c1` (stereo not drawn), the GI50 was 5.1 µM in assay [1]; 4.65 µM in assay [2]; 8.76 µM in [3]; 2.93 µM in assay [4]; 9.67 µM in assay [5]; 9.91 µM in assay [6]. Besides, the GI50 in assay [7] was 3.87 µM; in assay [8], 5.31 µM; in assay [9], 4.64 µM; in [10], 8.39 µM. Moreover, the TGI was 19 µM in assay [1]; 15.3 µM in [2]; 22.9 µM in assay [3]; 7.87 µM in [4]; 37.8 µM in [5]; 28.5 µM in [6]. Further, the TGI in assay [7] came out at 21.4 µM; in assay [8], 18.7 µM; in assay [9], 22.7 µM; in assay [10] it was 31.1 µM.
Regarding `O=C(Nc1ccccc1Cl)c1ccc(NC2=C(Cl)C(=O)N(C3CCCCC3)C2=O)cc1`, the GI50 in [1] is 3.55 µM; in [2], 2.99 µM; in assay [3] it was 6.87 µM; in [4] it was 17.4 µM; in assay [5], 24.3 µM; in assay [6], 20.2 µM. In addition, the GI50 in assay [7] was 3.38 µM; in assay [8], 9.64 µM; in assay [9], 3.03 µM; in assay [10], 13.7 µM. For the same compound, the TGI in assay [1] came out at 6.05 µM; in [2], 18.5 µM; in [3], 23.3 µM; in [4], 42.2 µM; in assay [5], 53.1 µM; in [6], 52.9 µM. The TGI in [7] was found to be 8.48 µM; in assay [8] it was 30.2 µM; in [9], 7.87 µM; in [10], 33.3 µM.
As to `CCCS(=O)(=O)Nc1cccc(Nc2ncnc3cc(NC(=O)CCl)ccc23)c1Cl`, the GI50 was 5.09 µM in assay [1]; 3.71 µM in [2]; 2.61 µM in [3]; 4.38 µM in [4]; 3.72 µM in assay [5]; 1.03 µM in assay [6]. For the same compound, the GI50 in assay [7] is 4.28 µM; in [8], 0.935 µM; in [9], 0.838 µM; in assay [10], 2.34 µM. Also, the TGI in assay [1] is 10.6 µM; in assay [2], 14.1 µM; in assay [3] it was 7.06 µM; in assay [4] it was 8.54 µM; in assay [5] it was 12.3 µM; in assay [6], 4.62 µM. The TGI turned out to be 10.9 µM in assay [7], 3.88 µM in assay [8], 5.49 µM in assay [9] and 6.08 µM in [10].
Consider `COc1ccc(C2CC(c3ccc(OC)cc3O)=NN2c2ccc(S(N)(=O)=O)cc2)cc1` (stereo not drawn), for which the GI50 is 16.5 µM in assay [1]; 24.1 µM in assay [2]; 6.34 µM in [3]; 3.27 µM in assay [4]; 4.48 µM in [5]; 34.1 µM in assay [6]. Further, the GI50 in assay [7] was 11.9 µM; in assay [8], 18.4 µM; in assay [9], 1.47 µM; in assay [10] it was 15.3 µM. The TGI in assay [1] is more than 100 µM; in assay [2], more than 100 µM; in [3], more than 100 µM; in assay [4] it was 32.8 µM; in assay [5], more than 100 µM; in [6] it was more than 100 µM. The TGI in [7] was 47.9 µM; in assay [8], more than 100 µM; in assay [9] it was 9.61 µM; in assay [10], more than 100 µM.
For `O=C1/C(=C/c2ccc(F)cc2)CN(C(=O)C(Cl)Cl)C/C1=C\c1ccc(F)cc1`, the GI50 was 0.178 µM in [1]; 0.295 µM in [2]; 0.188 µM in [3]; 1.31 µM in assay [4]; 0.393 µM in assay [5]; 0.328 µM in assay [6]. Also, the GI50 in assay [7] is 0.229 µM; in assay [8], 0.213 µM; in [9], 0.0386 µM; in assay [10] it was 0.323 µM. The TGI in [1] is 0.351 µM; in assay [2] it was 1.64 µM; in assay [3], 0.41 µM; in assay [4] it was 3.13 µM; in assay [5], 1.46 µM; in assay [6], 1.47 µM. In addition, the TGI in assay [7] was 1.55 µM; in assay [8], 0.499 µM; in [9], more than 100 µM; in assay [10], 1.09 µM.
